# pEC50: −log10 of the molar value.
# Molecular target: T1, S1P5 receptors (Homo sapiens, UniProt Q9H228)
# T1 construct: expressed in transfected cells; host or cells: CHO cells (membranes)
# Experiment: [35S]-GTPγS binding assay on CHO-S1P5 membranes (S1P5 agonism)
# Format: biochemical
# Settings: membranes of CHO cells expressing recombinant S1P5; measure of S1P5 agonism
# Method: CHO cells expressing recombinant S1P5 receptors were cultured in 500 cm^2 culture trays and, once confluent, rinsed and detached with cell-lifting buffer (10 mM HEPES, 154 mM NaCl, 6.85 mM EDTA, pH 7.4). Cells were then pelleted by centrifugation, resuspended, and homogenized in membrane preparation buffer (10 mM HEPES and 10 mM EDTA, pH 7.4) using a Polytron PT 1200E homogenizer (Kinematica, Luzern, Switzerland). Cellular proteins were pelleted by centrifugation at 48,000×g at 4° C. for 30 minutes. The resulting supernatant was discarded, and the pellet was re-suspended again in membrane preparation buffer, homogenized for a second time, and then centrifuged again as described above. The final cellular protein pellet was suspended in ice cold resuspension buffer (10 mM HEPES and 0.1 mM EDTA, pH 7.4), divided into aliquots, and stored at −80° C. until use.
# Functional binding assays for [^35S]-GTPγS were performed in 96-well non-binding surface plates with a final volume of 200 μL. The test compounds were serially diluted in DMSO and added to assay plates using a Tecan D300E digital printer with a total volume of 0.4 μL. The control sphingosine-1-phosphate (SIP) was prepared separately by preparing a 400 µM stock solution from a 100 nmol pellet of S1P in 10 mM Na2CO3 with 2% β-cyclodextrin. The serial dilution of S1P was done using complete assay buffer (20 mM HEPES, 10 mM MgCl2, 100 mM NaCl, 1 mM EDTA, 0.1% fatty acid free bovine serum albumin (BSA), and 30 μg/mL saponin, pH 7.4) and transferred to wells already containing 0.4 μL DMSO. All the wells were then loaded to a total volume of 40 μL of complete assay buffer, except the non-specific binding (NSB) wells. For NSB wells, 40 μL/well of 50 μM GTPγS (Sigma Aldrich, cat #G8634, St. Louis, MO) was added to wells containing 0.4 μL of DMSO. The assay was started by the addition of 120 μL/well of CHO-SIP receptor membrane solution containing 40 μg/mL of membrane protein, 16.67 μM guanosine diphosphate (GDP; Sigma Aldrich, cat #G7127, St. Louis, MO), and 2.5 mg/mL of WGA PVT SPA beads in complete buffer. Assay plates were then sealed and incubated at room temperature with gentle agitation for 30 minutes. Next, 40 μL/well of 1 nM of [^35S]-GTPγS (PerkinElmer, cat #NEG030X^250UC, Waltham, MA) in basic assay buffer (20 mM HEPES, 10 mM MgCl2, 100 mM NaCl, and 1 mM EDTA, pH7.4) was added to the assay plates to yield a final concentration of […] and the plates were further incubated for 40 minutes at room temperature with gentle agitation. The assay was terminated by centrifugation of the plates at 1000 rpm for 3 minutes using an Eppendorf 5810R centrifuge (Eppendorf, Hamburg, Germany) and G protein bound radioactivity was quantitated using a MicroBeta2 microplate scintillation counter (PerkinElmer, Waltham, MA). As G protein bound radioactivity directly correlates to receptor activation and coupling to the G protein, this assay is a measure of S1P5 agonism.
# T1 sequence (Q9H228 whole entry): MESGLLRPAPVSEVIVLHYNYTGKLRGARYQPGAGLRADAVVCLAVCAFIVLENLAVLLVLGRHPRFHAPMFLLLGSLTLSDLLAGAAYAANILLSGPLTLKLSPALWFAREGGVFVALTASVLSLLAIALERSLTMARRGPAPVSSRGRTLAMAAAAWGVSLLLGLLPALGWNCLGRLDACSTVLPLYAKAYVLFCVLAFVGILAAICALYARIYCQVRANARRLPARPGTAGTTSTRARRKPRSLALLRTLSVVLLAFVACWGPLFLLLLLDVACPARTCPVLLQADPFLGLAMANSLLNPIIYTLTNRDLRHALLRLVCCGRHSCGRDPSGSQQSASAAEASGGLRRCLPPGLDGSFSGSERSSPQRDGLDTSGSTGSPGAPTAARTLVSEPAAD
row,SMILES,pEC50
1,"Cc1cc2c(cc1-c1ccc(C3CC3)c(Cl)c1)CCC2N1CC(C)(O)C1 (single isomer, unassigned) [Compound 21b, 1-[5-(3-chloro-4-cyclopropyl-phenyl)-6-methyl-indan-1-yl]-3-methyl-azetidin-3-ol]",8.00 to 9.00
2,"Cc1cc2c(cc1C#Cc1cccc(F)c1)CCC2N1CC(C)(O)C1 (single isomer, unassigned) [Compound 22a, 1-[5-[2-(3-fluorophenyl)ethynyl]-6-methyl-indan-1-yl]-3-methyl-azetidin-3-ol]",7.00 to 8.00
3,"Cc1cc2c(cc1C#Cc1cccc(F)c1)CCC2N1CC(C)(O)C1 (single isomer, unassigned) [Compound 22b, 1-[5-[2-(3-fluorophenyl)ethynyl]-6-methyl-indan-1-yl]-3-methyl-azetidin-3-ol]",7.00 to 8.00
4,"Cc1cc2c(cc1CCc1c(Cl)cccc1Cl)CCC2N1CC(C)(O)C1 (single isomer, unassigned) [Compound 23a, 1-[5-[2-(2,6-dichlorophenyl)ethyl]-6-methyl-indan-1-yl]-3-methyl-azetidin-3-ol]",7.00 to 8.00
5,"Cc1cc2c(cc1CCc1c(Cl)cccc1Cl)CCC2N1CC(C)(O)C1 (single isomer, unassigned) [Compound 23b, 1-[5-[2-(2,6-dichlorophenyl)ethyl]-6-methyl-indan-1-yl]-3-methyl-azetidin-3-ol]",7.00 to 8.00
6,"CC1(O)CCN(C2CCc3cc(-c4ccc(C5CC5)c(Cl)c4)ccc32)CC1 (stereo not drawn) [Compound 6, 1-(5-(3-chloro-4-cyclopropylphenyl)-2,3-dihydro-1H-inden-1-yl)-4-methylpiperidin-4-ol]",5.00 to 6.00
7,"CC1(O)CCN(C2CCc3cc(-c4ccc(C5CC5)c(Cl)c4)ccc32)C1 (stereo not drawn) [Compound 7, 1-(5-(3-chloro-4-cyclopropylphenyl)-2,3-dihydro-1H-inden-1-yl)-3-methylpyrrolidin-3-ol]",6.00 to 7.00
8,"CC1(O)CCN(C2CCc3cc(C4CN(c5c(Cl)cccc5Cl)C4)ccc32)CC1 (stereo not drawn) [Compound 8, 1-(5-(1-(2,6-dichlorophenyl)azetidin-3-yl)-2,3-dihydro-1H-inden-1-yl)-4-methyl-piperidin-4-ol]",5.00 to 6.00
9,"CC1(O)CCN(C2CCc3cc(C4CN(c5c(Cl)cccc5Cl)C4)ccc32)C1 (stereo not drawn) [Compound 9, 1-(5-(1-(2,6-dichlorophenyl)azetidin-3-yl)-2,3-dihydro-1H-inden-1-yl)-3-methylpyrrolidin-3-ol]",6.00 to 7.00
10,"Cc1cc(-c2ccc(C3CC3)c(Cl)c2)cc2c1C(N1CCC(C)(O)CC1)CC2 (stereo not drawn) [Compound 11, 1-(5-(3-chloro-4-cyclopropylphenyl)-7-methyl-2,3-dihydro-1H-inden-1-yl)-4-methylpiperidin-4-ol]",5.00 to 6.00
11,"Cc1cc(-c2ccc(C3CC3)c(Cl)c2)cc2c1C(N1CCC(C)(O)C1)CC2 (stereo not drawn) [Compound 12, 1-(5-(3-chloro-4-cyclopropylphenyl)-7-methyl-2,3-dihydro-1H-inden-1-yl)-3-methylpyrrolidin-3-ol]",6.00 to 7.00
12,"CC1(O)CN(Cc2ccc(C#Cc3c(F)cccc3F)cc2)C1 [Compound 28, 1-(4-((2,6-difluoro-phenyl)ethynyl)benzyl)-3-methylazetidin-3-ol]",6.00 to 7.00
13,"CC1(O)CN(Cc2ccc(C#Cc3cccc(F)c3)cc2)C1 [Compound 29, 1-(4-((3-fluorophenyl)-ethynyl)benzyl)-3-methylazetidin-3-ol]",6.00 to 7.00
14,"CC1(O)CCN(Cc2ccc(C3CN(c4c(Cl)cccc4Cl)C3)cc2)CC1 [Compound 30, 1-(4-(1-(2,6-dichlorophenyl)azetidin-3-yl)benzyl)-4-methylpiperidin-4-ol]",5.00 to 6.00
15,"CC1(O)CN(Cc2ccc(C3CN(c4c(Cl)cccc4Cl)C3)cc2)C1 [Compound 31, 1-(4-(1-(2,6-dichlorophenyl)azetidin-3-yl)benzyl)-3-methylazetidin-3-ol]",7.00 to 8.00
16,"CC1(O)CCN(Cc2ccc(N3CC(c4c(Cl)cccc4Cl)C3)cc2)CC1 [Compound 32, 1-(4-(3-(2,6-dichlorophenyl)azetidin-1-yl)benzyl)-4-methylpiperidin-4-ol]",5.00 to 6.00
17,"CC1(O)CN(Cc2ccc(N3CC(c4c(Cl)cccc4Cl)C3)cc2)C1 [Compound 33, 1-(4-(3-(2,6-dichlorophenyl)azetidin-1-yl)benzyl)-3-methylazetidin-3-ol]",6.00 to 7.00
18,"Cc1cc(C2CN(c3c(Cl)cccc3Cl)C2)cc(C)c1CN1CCC(C)(O)CC1 [Compound 34, 1-(4-(1-(2,6-dichlorophenyl)azetidin-3-yl)-2,6-dimethylbenzyl)-4-methylpiperidin-4-ol]",6.00 to 7.00
19,"Cc1cc(C2CN(c3c(Cl)cccc3Cl)C2)cc(C)c1CN1CC(C)(O)C1 [Compound 35, 1-[[4-[1-(2,6-dichlorophenyl)azetidin-3-yl]-2,6-dimethyl-phenyl]methyl]-3-methyl-azetidin-3-ol]",7.00 to 8.00
20,"Cc1cc(N2CC(c3c(Cl)cccc3Cl)C2)cc(C)c1CN1CCC(C)(O)CC1 [Compound 36, 1-(4-(3-(2,6-dichlorophenyl)azetidin-1-yl)-2,6-dimethylbenzyl)-4-methylpiperidin-4-ol]",6.00 to 7.00
21,"Cc1cc(N2CC(c3c(Cl)cccc3Cl)C2)cc(C)c1CN1CC(C)(O)C1 [Compound 37, 1-(4-(3-(2,6-dichlorophenyl)azetidin-1-yl)-2,6-dimethylbenzyl)-3-methylazetidin-3-ol]",8.00 to 9.00
22,"CCC1(O)CN(Cc2c(C)cc(C3CN(c4c(Cl)cccc4Cl)C3)cc2C)C1 [Compound 38, 1-(4-(1-(2,6-dichlorophenyl)azetidin-3-yl)-2,6-dimethylbenzyl)-3-ethylazetidin-3-ol]",6.00 to 7.00

# Other lines, results leading:
row,pEC50,SMILES
1,8.00 to 9.00,"Cc1cc2c(cc1OCc1c(Cl)cccc1Cl)CCC2N1CC(C)(O)C1 (single isomer, unassigned) [Compound 24a, 1-[5-[(2,6-dichlorophenyl)methoxy]-6-methyl-indan-1-yl]-3-methyl-azetidin-3-ol]"
2,8.00 to 9.00,"Cc1cc2c(cc1OCc1c(Cl)cccc1Cl)CCC2N1CC(C)(O)C1 (single isomer, unassigned) [Compound 24b, 1-[5-[(2,6-dichlorophenyl)methoxy]-6-methyl-indan-1-yl]-3-methyl-azetidin-3-ol]"
3,8.00 to 9.00,"Cc1cc2c(c(C)c1-c1ccc(C3CC3)c(Cl)c1)CCC2N1CC(C)(O)C1 (single isomer, unassigned) [Compound 25a, 1-(5-(3-chloro-4-cyclopropylphenyl)-4,6-dimethyl-2,3-dihydro-1H-inden-1-yl)-3-methylazetidin-3-ol]"
4,8.00 to 9.00,"Cc1cc2c(c(C)c1-c1ccc(C3CC3)c(Cl)c1)CCC2N1CC(C)(O)C1 (single isomer, unassigned) [Compound 25b, 1-(5-(3-chloro-4-cyclopropylphenyl)-4,6-dimethyl-2,3-dihydro-1H-inden-1-yl)-3-methylazetidin-3-ol]"
5,8.00 to 9.00,"Cc1cc(-c2ccc(C3CC3)c(Cl)c2)c(C)c2c1C(N1CC(C)(O)C1)CC2 (single isomer, unassigned) [Compound 26a, 1-[5-(3-chloro-4-cyclopropyl-phenyl)-4,7-dimethyl-indan-1-yl]-3-methyl-azetidin-3-ol]"
6,8.00 to 9.00,"Cc1cc(-c2ccc(C3CC3)c(Cl)c2)c(C)c2c1C(N1CC(C)(O)C1)CC2 (single isomer, unassigned) [Compound 26b, 1-[5-(3-chloro-4-cyclopropyl-phenyl)-4,7-dimethyl-indan-1-yl]-3-methyl-azetidin-3-ol]"
7,8.00 to 9.00,"Cc1c(-c2ccc(C3CC3)c(Cl)c2)cc2c(c1C)C(N1CC(C)(O)C1)CC2 (single isomer, unassigned) [Compound 27a, 1-(5-(3-chloro-4-cyclopropylphenyl)-6,7-dimethyl-2,3-dihydro-1H-inden-1-yl)-3-methylazetidin-3-ol]"
8,7.00 to 8.00,"Cc1c(-c2ccc(C3CC3)c(Cl)c2)cc2c(c1C)C(N1CC(C)(O)C1)CC2 (single isomer, unassigned) [Compound 27b, 1-(5-(3-chloro-4-cyclopropylphenyl)-6,7-dimethyl-2,3-dihydro-1H-inden-1-yl)-3-methylazetidin-3-ol]"

# From patent US20260022094A1, “Compounds for the Treatment of Neurodegenerative Diseases” (Celgene Corporation, priority 2022, published 2026)
